Like-named read-outs stand apart in the source and are kept apart here. *1 amine or outer side, *2 acyl side, *3 side chain or, on linkers, in order; H or OH if unused. Where a SMILES comes first, the peptide text is derived from it. Bridges are numbered along the chain shown (N, C = ends). Roman numbers before positions name the chains, in order. [ ]: non-standard residue; d: D form. Actinocin(9to1) = Cc1c2oc3c(C)ccc(C(=O)[*:1])c3nc-2c(C(=O)[*:2])c(N)c1=O; NMeV = CN[C@H](C(=O)O)C(C)C; Sar = CNCC(=O)O
Key:
Assay type in all cases: cell-based
ULTR cells = test: Quantitative drug screen, CellTiter-Blue cell viability, ULTR; conditions: read-out: IC50 ULTR
GIST 882 cells [1] = test: Quantitative drug screen, CellTiter-Blue cell viability, GIST 882; conditions: Homo sapiens, GIST882, 72 h, read-out: IC50 GIST 882
GIST T1-10R cells [2] = test: Quantitative drug screen, CellTiter-Blue cell viability, GIST T1-10R; conditions: 72 h, read-out: IC50 GIST TI-10R
Hs 919.T. cells [3] = test: Drug screen assay in Hs 919.T. cell line at 1 μM; conditions: 72 h; for inhibition at 1 µM: read-out: inhibition against Hs 919.T. cell proliferation
Hs 919.T. cells [4] = test: Hit validation cell proliferation, 12-point dose-response, Hs 919.T.; conditions: read-out: IC50 Hs 919.T.
GIST T1-10R cells [5] = test: Hit validation cell proliferation, 12-point dose-response, GIST T1-10R; conditions: 72 h, read-out: IC50 GIST T1-10R
GIST 882 cells [6] = test: Hit validation cell proliferation, 12-point dose-response, GIST 882; conditions: Homo sapiens, GIST882, 72 h, read-out: IC50 GIST 882
GIST-T1 cells = test: Quantitative drug screen, CellTiter-Blue cell viability, GIST-T1; conditions: read-out: IC50 GIST-T1

Row | Compound | IC50 (ULTR cells; 72 h) | IC50 (GIST 882 cells [1]) | IC50 (GIST T1-10R cells [2]) | inhibition at 1 µM (Hs 919.T. cells [3]) | also measured
1 | CCCSc1ccc2nc(NC(=O)OC)[nH]c2c1 [Albendazole] | 320 nM | > 1000 nM | > 1000 nM |  | 
2 | COc1cc(NS(C)(=O)=O)ccc1Nc1c2ccccc2nc2ccccc12 [Amsacrine] | > 1000 nM | > 1000 nM | > 1000 nM |  | 
3 | CC(C)C[C@H](NC(=O)[C@H](Cc1ccccc1)NC(=O)c1cnccn1)B(O)O [Bortezomib] | < 70 nM | < 70 nM | 500 nM | > 50% | IC50 (Hs 919.T. cells [4]): 150 ± 10 nM; IC50 (GIST T1-10R cells [5]): 1 ± 1 nM; IC50 (GIST 882 cells [6]): 2 ± 0.3 nM
4 | CCOC(=O)n1ccn(C)c1=S [Carbimazole] | < 70 nM | 50 nM | 180 nM |  | 
5 | CCN(CC)CCCC(C)Nc1ccnc2cc(Cl)ccc12 (centres unmarked) [Chloroquine] | > 1000 nM | 460 nM | > 1000 nM |  | 
6 | Nc1nc(Cl)nc2c1ncn2[C@H]1C[C@H](O)[C@@H](CO)O1 [Cladribine] | 540 nM | 760 nM | > 1000 nM |  | 
7 | Nc1nc(Cl)nc2c1ncn2[C@@H]1O[C@H](CO)[C@@H](O)[C@@H]1F [Clofarabine] | 180 nM | 990 nM | > 1000 nM |  | 
8 | Cc1c2oc3c(C)ccc(C(=O)N[C@@H]4C(=O)N[C@H](C(C)C)C(=O)N5CCC[C@H]5C(=O)N(C)CC(=O)N(C)[C@@H](C(C)C)C(=O)O[C@@H]4C)c3nc-2c(C(=O)N[C@@H]2C(=O)N[C@H](C(C)C)C(=O)N3CCC[C@H]3C(=O)N(C)CC(=O)N(C)[C@@H](C(C)C)C(=O)O[C@@H]2C)c(N)c1=O [Dactinomycin] (I: T[dV]P[Sar][NMeV] / II: T[dV]P[Sar][NMeV]; ester I:1-I:C, II:1-II:C; linker I:N-II:N via Actinocin(9to1)) | < 70 nM | < 70 nM | > 1000 nM | > 50% | 
9 | C#C[C@]1(O)CC[C@H]2[C@@H]3CCC4=Cc5oncc5C[C@]4(C)[C@H]3CC[C@@]21C [Danazol] | > 1000 nM | 670 nM | > 1000 nM |  | 
10 | COc1cccc2c1C(=O)c1c(O)c3c(c(O)c1C2=O)C[C@@](O)(C(C)=O)C[C@@H]3O[C@H]1C[C@H](N)[C@H](O)[C@H](C)O1 [Daunorubicin] | < 70 nM | 170 nM | > 1000 nM | > 50% | 
11 | C[C@H]1O[C@@H](O[C@H]2[C@@H](O)C[C@H](O[C@H]3[C@@H](O)C[C@H](O[C@H]4CC[C@@]5(C)[C@H](CC[C@@H]6[C@@H]5CC[C@]5(C)[C@@H](C7=CC(=O)OC7)CC[C@]65O)C4)O[C@@H]3C)O[C@@H]2C)C[C@H](O)[C@@H]1O [Digitoxin] | < 70 nM | 160 nM | > 1000 nM |  | 
12 | C[C@H]1O[C@@H](O[C@H]2[C@@H](O)C[C@H](O[C@H]3[C@@H](O)C[C@H](O[C@H]4CC[C@@]5(C)[C@H](CC[C@@H]6[C@@H]5C[C@@H](O)[C@]5(C)[C@@H](C7=CC(=O)OC7)CC[C@]65O)C4)O[C@@H]3C)O[C@@H]2C)C[C@H](O)[C@@H]1O [Digoxin] | 160 nM | 790 nM | 930 nM | > 50% | 
13 | COc1cccc2c1C(=O)c1c(O)c3c(c(O)c1C2=O)C[C@@](O)(C(=O)CO)C[C@@H]3O[C@H]1C[C@H](N)[C@H](O)[C@H](C)O1 [Doxorubicin] | 160 nM | 80 nM | > 1000 nM | > 50% | 
14 | COc1cc([C@@H]2c3cc4c(cc3[C@@H](O[C@@H]3O[C@@H]5CO[C@@H](C)O[C@H]5[C@H](O)[C@H]3O)[C@H]3COC(=O)[C@H]23)OCO4)cc(OC)c1O [Etoposide] | > 1000 nM | 30 nM | > 1000 nM |  | 
15 | Nc1nc(F)nc2c1ncn2[C@@H]1O[C@H](COP(=O)(O)O)[C@@H](O)[C@@H]1O [Fludarabine Phosphate] | > 1000 nM | > 1000 nM | 810 nM |  | IC50 (GIST T1-10R cells [5]): 840 ± 200 nM; IC50 (GIST 882 cells [6]): 540 ± 30 nM
16 | CN(C)c1ccc(C(=C2C=CC(=[N+](C)C)C=C2)c2ccc(N(C)C)cc2)cc1 [Gentian Violet] | 160 nM | 250 nM | 960 nM |  | 
17 | CC(=O)[C@]1(O)Cc2c(O)c3c(c(O)c2[C@@H](O[C@H]2C[C@H](N)[C@H](O)[C@H](C)O2)C1)C(=O)c1ccccc1C3=O [Idarubicin] | < 70 nM | 50 nM | 690 nM | > 50% | IC50 (Hs 919.T. cells [4]): 70 ± 3 nM; IC50 (GIST T1-10R cells [5]): 50 ± 10 nM; IC50 (GIST 882 cells [6]): 130 ± 40 nM
18 | COC(=O)Nc1nc2ccc(C(=O)c3ccccc3)cc2[nH]1 [Mebendazole] | 730 nM | > 1000 nM | > 1000 nM |  | 
19 | O=C1c2c(O)ccc(O)c2C(=O)c2c(NCCNCCO)ccc(NCCNCCO)c21 [Mitoxantrone] | < 70 nM | 80 nM | > 1000 nM | > 50% | 
20 | Cc1cn(-c2cc(NC(=O)c3ccc(C)c(Nc4nccc(-c5cccnc5)n4)c3)cc(C(F)(F)F)c2)cn1 [Nilotimb] |  |  |  |  | IC50 (GIST-T1 cells; primary screen, 72 h, 10 μM to […] twofold dilutions, * = IC50 < 0.07 μM and drug showed no dose response): 380 nM
21 | C[C@@H]1O[C@@H](O[C@H]2C[C@@H](O)[C@]3(CO)[C@H]4[C@H](O)C[C@]5(C)[C@@H](C6=CC(=O)OC6)CC[C@]5(O)[C@@H]4CC[C@]3(O)C2)[C@H](O)[C@H](O)[C@H]1O [Ouabain] | < 70 nM | 30 nM | 240 nM |  | 
22 | CC(=O)O[C@H]1C(=O)[C@@]2(C)[C@H]([C@H](OC(=O)c3ccccc3)[C@]3(O)C[C@H](OC(=O)[C@H](O)[C@@H](NC(=O)c4ccccc4)c4ccccc4)C(C)=C1C3(C)C)[C@]1(OC(C)=O)CO[C@@H]1C[C@@H]2O [Paclitaxel] | 200 nM | > 1000 nM | > 1000 nM |  | 
23 | COc1cc([C@@H]2c3cc4c(cc3[C@@H](O[C@@H]3O[C@@H]5CO[C@@H](c6cccs6)O[C@H]5[C@H](O)[C@H]3O)[C@H]3COC(=O)[C@H]23)OCO4)cc(OC)c1O [Teniposide] | 190 nM | 90 nM | > 1000 nM |  | 
24 | CC[C@@]1(O)C(=O)OCc2c1cc1n(c2=O)Cc2cc3c(CN(C)C)c(O)ccc3nc2-1 [Topotecan] | 90 nM | 440 nM | > 1000 nM |  | 
25 | CCC1=C[C@@H]2CN(C1)Cc1c([nH]c3ccccc13)[C@@](C(=O)OC)(c1cc3c(cc1OC)N(C)[C@H]1[C@@](O)(C(=O)OC)[C@H](OC(C)=O)[C@]4(CC)C=CCN5CC[C@]31[C@@H]54)C2 [Vinorelbine] | 80 nM | > 1000 nM | > 1000 nM | > 50% | 
26 | Plicamycin |  |  |  |  | inhibition against Hs 919.T. cell proliferation (Hs 919.T. cells [3]; 1 μM drug): greater than 50%; IC50 (ULTR cells): 150 nM; IC50 (GIST-T1 cells): 350 nM

Source: article PMC3707936 (Molecular cancer therapeutics, 2013)
